Results from patent US20120046284A1, “Salts and hydrates of 4-[(3-chloro-4-fluoro-phenyl)amino]-6-(cis-4--cyclohexan-1-yloxy)-7-methoxy-quinazoline, their use as a medicament and the preparation thereof” (BOEHRINGER INGELHEIM INTERNATIONAL GMBH, priority 2010, published 2012).
Values after ≈ are worked out from the molar mass of the structure shown. Counter-ions that a name gives are not always drawn. One block for each molecule: values may come before it.

Experiments:
[1] = Solubility tests in water (2 hours shaking at ambient temperature, UV spectroscopy; pH of saturated solution); assay type: physicochemical; conditions: for solubility: in water, 2 hours, ambient temperature; for intrinsic pH of the saturated solution: saturated aqueous solution
Description: The solubility of the different crystalline forms of formula (I) or (6) in water is determined as follows: approx. 5 mg of the corresponding form are added to 5 ml of water. The mixture is shaken for 2 hours at ambient temperature in an overhead shaker made by the Heidolph company. Then the undissolved fractions are filtered off through a 0.45 μm PTFE filter. The dissolved fraction in the filtrate is determined by UV spectroscopy. In addition, the pH of the saturated aqueous solution is also measured with a standard pH electrode.

human EGF-R = molecular target: T1, human EGF-R (Homo sapiens, UniProt P00533); assay: Inhibition of the EGFR-dependent proliferation (EGF-stimulated murine haematopoietic cell line expressing human EGF-R); assay type: cell-based; conditions: 20 ng/ml human EGF, 48 hours at 37° C.
T1 construct: expressed in transfected cells
Description: A murine haematopoietic cell line is genetically modified so as to express functional human EGF-R. The proliferation of this cell line can therefore be stimulated by EGF.
The test is carried out as follows:
The cells are cultivated in RPMI/1640 medium. The proliferation is stimulated with 20 ng/ml of human EGF (Promega). To investigate the inhibitory activity of the compounds according to the invention these compounds are dissolved in 100% dimethylsulphoxide (DMSO) and added to the cultures in various dilutions, the maximum DMSO concentration being 1%. The cultures are incubated for 48 hours at 37° C.
In order to determine the inhibitory activity of the compound (I.1) according to the invention the relative cell number is measured in O.D. units using the Cell Titer 96TM AQueous Non-Radioactive Cell Proliferation Assay (Promega). The relative cell number is calculated as a percentage of the control and the concentration of active substance which inhibits the proliferation of the cells by 50% (IC50) is derived therefrom.

[2] = Water absorption tests (DVS, hygroscopic characteristics); assay type: physicochemical
Description: A DVS-1 made by Surface Measurement Systems (=SMS) is used to investigate the hygroscopic characteristics: the following humidity profiles are used: from 10-90% r.h. in steps of 10%, absorption and desorption profiles are recorded, typical weights: 10-20 mg The corresponding diagrams (kinetic and isothermic plot) of the different forms are shown in FIGS. 1c+d-5c+d.

[3] = listed as monohydrate free base (I.2)
[4] = listed as hemihydrochloride sesquihydrate (I.1)
[5] = listed as anhydrous free base (6)

T1 sequence (P00533 25-1210): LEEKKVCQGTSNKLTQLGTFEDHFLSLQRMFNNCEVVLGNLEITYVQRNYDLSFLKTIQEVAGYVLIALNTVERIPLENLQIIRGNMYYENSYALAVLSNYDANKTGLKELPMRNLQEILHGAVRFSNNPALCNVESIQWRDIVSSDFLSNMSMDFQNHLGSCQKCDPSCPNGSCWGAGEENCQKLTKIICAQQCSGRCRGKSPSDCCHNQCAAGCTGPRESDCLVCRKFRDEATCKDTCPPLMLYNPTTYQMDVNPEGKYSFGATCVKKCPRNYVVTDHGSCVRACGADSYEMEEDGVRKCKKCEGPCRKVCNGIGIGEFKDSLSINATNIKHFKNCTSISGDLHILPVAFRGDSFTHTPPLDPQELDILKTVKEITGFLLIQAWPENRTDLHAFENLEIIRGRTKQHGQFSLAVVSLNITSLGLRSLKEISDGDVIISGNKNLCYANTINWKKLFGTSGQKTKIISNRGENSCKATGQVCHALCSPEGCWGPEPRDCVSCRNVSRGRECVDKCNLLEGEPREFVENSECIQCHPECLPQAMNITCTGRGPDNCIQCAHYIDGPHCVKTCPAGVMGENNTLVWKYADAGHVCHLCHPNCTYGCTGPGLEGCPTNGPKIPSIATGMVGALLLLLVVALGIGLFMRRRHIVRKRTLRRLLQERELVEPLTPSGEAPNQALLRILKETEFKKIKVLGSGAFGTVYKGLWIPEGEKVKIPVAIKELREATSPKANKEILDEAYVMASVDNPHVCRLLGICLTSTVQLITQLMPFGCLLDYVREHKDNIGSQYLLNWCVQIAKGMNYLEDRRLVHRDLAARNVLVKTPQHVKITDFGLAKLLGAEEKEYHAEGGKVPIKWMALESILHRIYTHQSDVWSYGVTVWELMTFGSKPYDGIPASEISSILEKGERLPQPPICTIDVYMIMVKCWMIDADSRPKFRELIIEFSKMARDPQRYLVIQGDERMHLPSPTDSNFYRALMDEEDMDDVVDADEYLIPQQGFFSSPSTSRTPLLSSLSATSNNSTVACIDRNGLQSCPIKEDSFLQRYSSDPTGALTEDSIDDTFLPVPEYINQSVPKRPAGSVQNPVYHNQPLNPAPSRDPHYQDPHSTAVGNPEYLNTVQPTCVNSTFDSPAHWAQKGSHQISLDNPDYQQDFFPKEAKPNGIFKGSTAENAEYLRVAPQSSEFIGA

- solubility [1]: 47 µg/mL
- intrinsic pH of the saturated solution [1]: 4.0
Structure (SMILES): COc1cc2ncnc(Nc3ccc(F)c(Cl)c3)c2cc1O[C@H]1CC[C@@H](N(C)C(=O)N2CCOCC2)CC1 [low-melting form monohydrochloride (I.3), 4-[(3-chloro-4-fluoro-phenyl)amino]-6-(cis-4-{N-[(morph-1-olin-4-yl)carbonyl]-N-methyl-amino}-cyclohexan-1-yloxy)-7-methoxy-quinazoline]

- solubility [1, 3]: <1 µg/mL
- intrinsic pH of the saturated solution [1, 3]: 5.9
Structure (SMILES): COc1cc2ncnc(Nc3ccc(F)c(Cl)c3)c2cc1O[C@H]1CC[C@@H](N(C)C(=O)N2CCOCC2)CC1 [Compound (I.2), 4-[(3-chloro-4-fluoro-phenyl)amino]-6-(cis-4-{N-[(morph-1-olin-4-yl)carbonyl]-N-methyl-amino}-cyclohexan-1-yloxy)-7-methoxy-quinazoline]

- IC50 (human EGF-R): 10 nM
- solubility [1, 4]: 170 µg/mL (≈ 312 µM)
- intrinsic pH of the saturated solution [1, 4]: 6.5
Structure (SMILES): COc1cc2ncnc(Nc3ccc(F)c(Cl)c3)c2cc1O[C@H]1CC[C@@H](N(C)C(=O)N2CCOCC2)CC1 [Compound (I.1), 4-[(3-chloro-4-fluoro-phenyl)amino]-6-(cis-4-{N-[(morph-1-olin-4-yl)carbonyl]-N-methyl-amino}-cyclohexan-1-yloxy)-7-methoxy-quinazoline]
- hygroscopic characteristics: change in particle size or phase depending on the relative humidity [2]: no change in particle size or phase change takes place

- solubility [1, 5]: <1 µg/mL
- intrinsic pH of the saturated solution [1, 5]: 5.9
Structure (SMILES): COc1cc2ncnc(Nc3ccc(F)c(Cl)c3)c2cc1O[C@H]1CC[C@@H](N(C)C(=O)N2CCOCC2)CC1 [(6), 4-[(3-chloro-4-fluoro-phenyl)amino]-6-(cis-4-{N-[(morph-1-olin-4-yl)carbonyl]-N-methyl-amino}-cyclohexan-1-yloxy)-7-methoxy-quinazoline]

- solubility [1]: 41 µg/mL
- intrinsic pH of the saturated solution [1]: 3.3
Structure (SMILES): COc1cc2ncnc(Nc3ccc(F)c(Cl)c3)c2cc1O[C@H]1CC[C@@H](N(C)C(=O)N2CCOCC2)CC1 [high-melting form monohydrochloride (I.3)] [4-[(3-chloro-4-fluoro-phenyl)amino]-6-(cis-4-{N-[(morph-1-olin-4-yl)carbonyl]-N-methyl-amino}-cyclohexan-1-yloxy)-7-methoxy-quinazoline]
